Source: patent publication US12077503B2, “Substituted cyclic amides and their use as herbicides” (FMC CORPORATION, priority 2015, dated 2024)

Legend:
Assay type in all cases: in vivo
[1] = system: sedge, umbrella (small-flower umbrella sedge, Cyperus difformis); assay: Test B flooded paddy test; conditions: Cyperus difformis, 250 g ai/ha, Flood; 0 to 100 scale where 0 is no effect and 100 is complete control; read-out: Sedge, Umbrella plant response rating
Method in brief: (§1)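 Plants at 2-leaf stage flooded to 3 cm above soil, with compounds applied directly to paddy water and that depth maintained. Plants kept in greenhouse 13–15 d. Visual rating versus controls on a 0 (no effect) to 100 (complete control) scale.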

[2] = system: ducksalad (Heteranthera limosa); assay: Test B flooded paddy test; conditions: Heteranthera limosa, 250 g ai/ha, Flood; 0 to 100 scale where 0 is no effect and 100 is complete control; read-out: Ducksalad plant response rating
Method in brief: as §1

[3] = system: rice (Oryra sativa); assay: Test B flooded paddy test; conditions: Oryza sativa, 250 g ai/ha, Flood; 0 to 100 scale where 0 is no effect and 100 is complete control; read-out: Rice plant response rating
Method in brief: as §1

[4] = system: barnyardgrass (Echinochloa crus-galli); assay: Test B flooded paddy test; conditions: Echinochloa crus-galli, 250 g ai/ha, Flood; 0 to 100 scale where 0 is no effect and 100 is complete control; read-out: Barnyardgrass plant response rating
Method in brief: as §1

[5] = system: Galium (catchweed bedstraw, Galium aparine); assay: Test A postemergence; conditions: Galium, post-emergence, 240 h, read-out: Galium plant response rating (0 to 100 scale)
Method in brief: (§2)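 Seeds sprayed preemergence with a directed soil spray, or plants at 2 to 10 cm height and one- to two-leaf stage sprayed postemergence, with test chemicals in a non-phytotoxic solvent mixture containing surfactant, in loam soil–sand blend. Injury rated visually against untreated controls after about 10 d in greenhouse, 0 (no effect) to 100 (complete control).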

[6] = system: pigweed (Amaranthus retroflexus); assay: Test A postemergence; conditions: Amaranthus retroflexus, post-emergence, 240 h, read-out: Pigweed plant response rating (0 to 100 scale)
Method in brief: as §2

[7] = system: corn (Zea mays); assay: Test A postemergence; conditions: Zea mays, post-emergence, 240 h, read-out: Corn plant response rating (0 to 100 scale)
Method in brief: as §2

[8] = system: blackgrass (Alopecurus myosuroides); assay: Test A postemergence; conditions: Alopecurus myosuroides, post-emergence, 240 h, read-out: Blackgrass plant response rating (0 to 100 scale)
Method in brief: as §2

[9] = system: ryegrass, Italian (Italian ryegrass, Lolium multiflorum); assay: Test A postemergence; conditions: Lolium multiflorum, post-emergence, 240 h, read-out: Ryegrass, Italian plant response rating (0 to 100 scale)
Method in brief: as §2

[10] = system: ragweed (common ragweed, Ambrosia elatior); assay: Test A postemergence; conditions: Ambrosia artemisiifolia, post-emergence, 240 h, read-out: Ragweed plant response rating (0 to 100 scale)
Method in brief: as §2

[11] = system: barnyardgrass (Echinochloa crus-galli); assay: Test A postemergence; conditions: Echinochloa crus-galli, post-emergence, 240 h, read-out: Barnyardgrass plant response rating (0 to 100 scale)
Method in brief: as §2

[12] = system: giant foxtail (Setaria faberii); assay: Test A postemergence; conditions: Setaria faberi, post-emergence, 240 h, read-out: Foxtail, Giant plant response rating (0 to 100 scale)
Method in brief: as §2

[13] = system: Kochia (Kochia scoparia); assay: Test A postemergence; conditions: Bassia scoparia, post-emergence, 240 h, read-out: Kochia plant response rating (0 to 100 scale)
Method in brief: as §2

[14] = system: wheat (Triticum aestivum); assay: Test A postemergence; conditions: Triticum aestivum, post-emergence, 240 h, Postemergence, 31 g ai/ha; 0 is no effect, 100 is complete control; read-out: Wheat plant response rating (0 to 100 scale)
Method in brief: as §2

[15] = system: pigweed (Amaranthus retroflexus); assay: Test A preemergence; conditions: Amaranthus retroflexus, pre-emergence, 240 h, 0 to 100 scale where 0 is no effect and 100 is complete control, read-out: Pigweed plant response rating
[16] = system: ryegrass, Italian (Italian ryegrass, Lolium multiflorum); assay: Test A preemergence; conditions: Lolium multiflorum, pre-emergence, 240 h, 0 to 100 scale where 0 is no effect and 100 is complete control, read-out: Ryegrass, Italian plant response rating
Method in brief: as §2

[17] = system: ragweed (common ragweed, Ambrosia elatior); assay: Test A preemergence; conditions: Ambrosia artemisiifolia, pre-emergence, 240 h, 0 to 100 scale where 0 is no effect and 100 is complete control, read-out: Ragweed plant response rating
Method in brief: as §2

[18] = system: barnyardgrass (Echinochloa crus-galli); assay: Test A preemergence; conditions: Echinochloa crus-galli, pre-emergence, 240 h, 0 to 100 scale where 0 is no effect and 100 is complete control, read-out: Barnyardgrass plant response rating
Method in brief: as §2

[19] = system: giant foxtail (Setaria faberii); assay: Test A preemergence; conditions: Setaria faberi, pre-emergence, 240 h, 0 to 100 scale where 0 is no effect and 100 is complete control, read-out: Foxtail, Giant plant response rating
Method in brief: as §2

[20] = system: Kochia (Kochia scoparia); assay: Test A preemergence; conditions: Bassia scoparia, pre-emergence, 240 h, 0 to 100 scale where 0 is no effect and 100 is complete control, read-out: Kochia plant response rating
Method in brief: as §2

[21] = 125 g ai/ha, postemergence, visual injury vs untreated controls after approx. 10 d, 0 = no effect, 100 = complete control
[22] = Postemergence, 31 g ai/ha, 0 is no effect, 100 is complete control
[23] = 125 g ai/ha, preemergence, visual injury rating, approximately 10 d

Cn1ccc2ccc([C@H]3CNC(=O)[C@@H]3C(=O)Nc3ccccc3F)cc21 [Compound 1264]
0%: pest or weed control at 250 g/ha [1] | pest or weed control at 250 g/ha [2] | pest or weed control at 250 g/ha [3] | pest or weed control at 250 g/ha [4] | pest or weed control at 125 g/ha [5, 21] | pest or weed control at 31 g/ha [5, 22] | pest or weed control at 125 g/ha [6, 21] | pest or weed control at 31 g/ha [6, 22] | plant injury at 125 g/ha [7, 21] | plant injury at 31 g/ha [7, 22] | pest or weed control at 125 g/ha [8, 21] | pest or weed control at 31 g/ha [8, 22] | pest or weed control at 125 g/ha [9, 21] | pest or weed control at 31 g/ha [9, 22] | pest or weed control at 125 g/ha [10, 21] | pest or weed control at 31 g/ha [10, 22] | pest or weed control at 125 g/ha [11, 21] | pest or weed control at 31 g/ha [11, 22] | pest or weed control at 125 g/ha [12, 21] | pest or weed control at 31 g/ha [12, 22] | pest or weed control at 125 g/ha [13, 21] | pest or weed control at 31 g/ha [13, 22] | plant injury at 31 g/ha [14] | pest or weed control at 31 g/ha ([15]; 31 g ai/ha, Preemergence) | pest or weed control at 125 g/ha [15, 23] | pest or weed control at 31 g/ha ([16]; 31 g ai/ha, Preemergence) | pest or weed control at 125 g/ha [16, 23] | pest or weed control at 31 g/ha ([17]; 31 g ai/ha, Preemergence) | pest or weed control at 125 g/ha [17, 23] | pest or weed control at 31 g/ha ([18]; 31 g ai/ha, Preemergence) | pest or weed control at 125 g/ha [18, 23] | pest or weed control at 31 g/ha ([19]; 31 g ai/ha, Preemergence) | pest or weed control at 125 g/ha [19, 23] | pest or weed control at 31 g/ha ([20]; 31 g ai/ha, Preemergence) | pest or weed control at 125 g/ha [20, 23]
